Assays:
[1] = tested on: mice; assay: Hot plate assay for antinociception, subcutaneous dosing; assay type: in vivo, mouse; details: for ED50: 0.5 h, re-tested 30 min after drug administration; for ED50 / analgesic effect in the mouse hot plate assay compared to morphine: SC
Protocol: The hot plate assay is adapted from the procedure originally described by O'Callaghan and Holtzman (JPET, 192, 497, 1975) and is commonly used to determine the potential analgesic efficacy of opioid agonists. The antinociceptive effect of the composition(s) described herein in the hot plate is expressed in % MPE (Maximum Possible Effect).
Rats (175-250 g) or mice (20-30 g) acclimated to the vivarium for at least 48 hr prior to behavioral testing. Test drugs were administered by the subcutaneous (SC) route. Animals were placed on the hot plate, which the temperature was set at 50-56° C., depending on the in vitro potency of the compound. A cutoff time of 30-60 seconds was used depending on the temperature of the hot plate so that the paws of the animal displaying analgesia, was not damaged by the heat stimulus. The cutoff time was considered a 100% response to the thermal insult. Prior to drug treatment, each animal was tested to determine the baseline response. Thirty minutes after drug administration, animals were re-tested. Dose response experiments were performed to evaluate the potency of the test compound when various doses were administered at the point when maximal analgesia is observed.
The % MPE was calculated according to the following formula:
% MPE=[(Post drug latency−baseline latency)/(60 or 30−baseline latency)]×100
ED50 values were calculated from the mean % MPE values for each group using log dose-response curves by least-squares regression analysis.

[2] = biological target: T1, CYP2D6 (Homo sapiens, UniProt P10635); assay: Metabolic stability in human liver microsomes with/without quinidine: percent contribution of CYP2D6; assay type: in vitro ADME; details: human liver microsomes 0.25 mg/mL, test compound 1 μM, quinidine 1 μM; from intrinsic clearance without and with inhibitor
T1 construct: incubations of test compound (1 μM) with human liver microsomes (0.25 mg/mL); from tissue; host or cells: human liver microsomes
T1 sequence (P10635 whole entry): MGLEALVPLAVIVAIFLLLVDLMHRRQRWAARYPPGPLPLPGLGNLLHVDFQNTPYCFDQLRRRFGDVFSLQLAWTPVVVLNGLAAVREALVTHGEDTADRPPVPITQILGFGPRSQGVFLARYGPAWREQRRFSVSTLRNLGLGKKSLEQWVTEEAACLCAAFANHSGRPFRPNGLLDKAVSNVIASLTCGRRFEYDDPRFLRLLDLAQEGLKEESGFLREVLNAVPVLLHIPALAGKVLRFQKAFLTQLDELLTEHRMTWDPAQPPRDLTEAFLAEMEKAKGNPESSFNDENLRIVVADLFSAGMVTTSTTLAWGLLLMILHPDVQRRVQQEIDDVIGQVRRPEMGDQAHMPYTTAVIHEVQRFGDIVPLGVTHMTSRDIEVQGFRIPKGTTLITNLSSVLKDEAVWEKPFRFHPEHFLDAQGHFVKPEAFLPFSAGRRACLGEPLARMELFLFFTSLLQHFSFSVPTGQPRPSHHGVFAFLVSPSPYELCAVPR
Protocol: (§1) Compounds 141, 208, 246, 265, 267, 271 or 277 were analyzed to determine whether they are metabolized by CYP2D6 and/and/or CYP3A4. The studies were designed to evaluate the metabolic stability of compounds in human liver microsomes for the purpose of determining the percent contribution of CYP2D6 and CYP3A4 to their in vitro metabolism. […] Incubations are performed with or without CYP specific inhibitors. Incubations with the CYP2D6 direct inhibitor, quinidine (1 μM) quantify the percent contribution of CYP2D6 to metabolism. Incubations with the CYP3A4 metabolism-dependent inhibitor, troleandomycin (50 μM), define the percent contribution of CYP3A4. The percentage of CYP2D6 and CYP3A4 contribution is calculated using intrinsic clearance values in the absence and presence of the specific CYP inhibitor (Gibbs et al. 2006).

[3] = biological target: T2, CYP3A4 (Homo sapiens, UniProt P08684); assay: Metabolic stability in human liver microsomes with/without troleandomycin: percent contribution of CYP3A4; assay type: in vitro ADME; details: human liver microsomes 0.25 mg/mL, test compound 1 μM, troleandomycin 50 μM; from intrinsic clearance without and with inhibitor
T2 construct: incubations of test compound (1 μM) with human liver microsomes (0.25 mg/mL); from tissue; host or cells: human liver microsomes
T2 sequence (P08684 whole entry): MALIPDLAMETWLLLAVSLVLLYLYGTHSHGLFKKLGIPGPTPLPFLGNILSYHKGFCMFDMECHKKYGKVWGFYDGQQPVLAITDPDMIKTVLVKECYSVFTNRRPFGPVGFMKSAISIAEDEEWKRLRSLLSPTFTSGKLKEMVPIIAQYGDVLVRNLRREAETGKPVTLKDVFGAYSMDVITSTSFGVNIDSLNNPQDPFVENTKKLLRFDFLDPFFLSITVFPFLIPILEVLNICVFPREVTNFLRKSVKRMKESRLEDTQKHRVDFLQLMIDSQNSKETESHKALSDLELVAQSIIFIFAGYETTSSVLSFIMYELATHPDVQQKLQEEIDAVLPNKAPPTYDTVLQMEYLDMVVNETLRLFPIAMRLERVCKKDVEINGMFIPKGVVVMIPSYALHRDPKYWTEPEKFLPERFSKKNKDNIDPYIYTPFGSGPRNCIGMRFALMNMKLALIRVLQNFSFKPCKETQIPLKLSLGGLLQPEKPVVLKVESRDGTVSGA
Protocol: as §1

[4] = Oral availability in humans with low versus normal CYP2D6 activity; assay type: in vivo; details: human with low CYP2D6 activity compared to humans with normal CYP2D6 activity (data not shown)

| SMILES | ED50 ([1]; mouse hot plate) [mg/kg] | CYP2D6 contribution [2] [%] | CYP3A4 contribution [3] [%] | other results |
| --- | --- | --- | --- | --- |
| c1ccc(CNCC[C@@]2(c3ccccn3)CCOC3(CCCC3)C2)cc1 [Compound 28] | 1.2 |  |  | analgesic effect in the mouse hot plate assay compared to morphine [1]: more robust analgesic effect |
| Fc1ccc([C@]2(CCNCc3ccccc3)CCOC3(CCCC3)C2)cc1 [Compound 81, benzyl({2-[(9R)-9-(4-fluorophenyl)-6-oxaspiro[4.5]decan-9-yl]ethyl})amine] |  |  |  | % MPE ([1]; mouse hot plate, at 10 mg/kg SC): 100% at 10 |
| Cc1cccc(CNCC[C@@]2(c3ccc(F)cc3)CCOC3(CCCC3)C2)c1 [Compound 122, {2-[(9R)-9-(4-fluorophenyl)-6-oxaspiro[4.5]decan-9-yl]ethyl}[(3-methylphenyl)methyl]amine] | 1.1 |  |  | analgesic effect in the mouse hot plate assay compared to morphine [1]: more robust analgesic effect |
| COc1ccsc1CNCC[C@@]1(c2ccccn2)CCOC2(CCCC2)C1 [Compound 140, [(3-methoxythiophen-2-yl)methyl]({2-[(9R)-9-(pyridin-2-yl)-6-oxaspiro[4.5]decan-9-yl]ethyl})amine] |  | 50 | 50 | oral availability [4]: substantially higher oral availability |
| Cc1ccc(CNCC[C@@]2(c3ccc(F)cc3)CCOC3(CCCC3)C2)s1 [Compound 145] | 5.9 |  |  |  |
| Brc1csc(CNCC[C@@]2(c3ccccn3)CCOC3(CCCC3)C2)c1 [Compound 208] |  | 3 | 17 |  |
| Cc1cccc(CNCC[C@@]2(c3ccccn3)CCOC3(CCCC3)C2)c1 [Compound 246] |  | 80 | 25 |  |
| Fc1cncc(CNCC[C@@]2(c3ccccn3)CCOC3(CCCC3)C2)c1 [Compound 265] |  |  | >50 |  |
| Clc1cncc(CNCC[C@@]2(c3ccccn3)CCOC3(CCCC3)C2)c1 [Compound 267] |  | 8 | 55 |  |
| FC(F)(F)c1cncc(CNCC[C@@]2(c3ccccn3)CCOC3(CCCC3)C2)c1 [Compound 271] |  | 3 | 45 |  |
| FC(F)(F)c1ccnc(CNCC[C@@]2(c3ccccn3)CCOC3(CCCC3)C2)c1 [Compound 277] |  | >20 | >50 |  |
| CN1CC[C@]23c4c5ccc(O)c4O[C@H]2[C@@H](O)C=C[C@H]3[C@H]1C5 [Morphine, reference compound] | 3.8 |  |  | efficacy in the mouse hot plate ([1]; at a dose of 10 mg/kg SC): full efficacy |
